The supplement of paper PMC10307832

What was measured:
Test in all cases: relative viability (nuclei count vs DMSO), 5 days (fraction); higher = more cells survive
XMD13-2 + Palbociclib = compound: C1CC1C(=O)NC2=NNC3=C2C=CC(=C3)C4=CC(=CC=C4)C(=O)NC5CC5 [XMD13-2] + CC(=O)c1c(C)c2cnc(Nc3ccc(N4CCNCC4)cn3)nc2n(C2CCCC2)c1=O [Palbociclib] (partner 0.5 µM)
Method in brief: (§1)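 Dosing by pin tool came one day after lung cancer cell lines were seeded in 1536-well plates, using either one drug or a fixed anchor-drug dose plus five library-drug doses (not always all listed) in √10 steps. After 5 days, nuclei were counted on 4× images. Relative viability is treated-well nuclei count divided by vehicle-well nuclei count, and values are medians of duplicate plates.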

ALW-II-49-7 + Crizotinib = compound: Cc1ccc(C(=O)Nc2cccc(C(F)(F)F)c2)cc1Nc1cncc(C(N)=O)c1 [ALW-II-49-7] + C[C@@H](Oc1cc(-c2cnn(C3CCNCC3)c2)cnc1N)c1c(Cl)ccc(F)c1Cl [Crizotinib] (partner 1 µM)
Method in brief: as §1

ALW-II-49-7 + Pictilisib = compound: Cc1ccc(C(=O)Nc2cccc(C(F)(F)F)c2)cc1Nc1cncc(C(N)=O)c1 [ALW-II-49-7] + CS(=O)(=O)N1CCN(Cc2cc3nc(-c4cccc5[nH]ncc45)nc(N4CCOCC4)c3s2)CC1 [Pictilisib] (partner 1 µM)
Method in brief: as §1

Dasatinib + Trametinib = compound: Cc1nc(Nc2ncc(C(=O)Nc3c(C)cccc3Cl)s2)cc(N2CCN(CCO)CC2)n1 [Dasatinib] + CC(=O)Nc1cccc(-n2c(=O)n(C3CC3)c(=O)c3c(Nc4ccc(I)cc4F)n(C)c(=O)c(C)c32)c1 [Trametinib] (partner 0.02 µM)
Method in brief: as §1

Row | Cell Line | relative viability (XMD13-2 + Palbociclib; first compound 0.05 µM) | relative viability (XMD13-2 + Palbociclib; first compound 0.1581 µM) | relative viability (XMD13-2 + Palbociclib; first compound 0.5 µM) | relative viability (XMD13-2 + Palbociclib; first compound 1.581 µM) | relative viability (XMD13-2 + Palbociclib; first compound 5 µM) | relative viability (ALW-II-49-7 + Crizotinib; first compound 0.08 µM) | relative viability (ALW-II-49-7 + Crizotinib; first compound 0.253 µM) | relative viability (ALW-II-49-7 + Crizotinib; first compound 0.8 µM) | relative viability (ALW-II-49-7 + Crizotinib; first compound 2.53 µM) | relative viability (ALW-II-49-7 + Crizotinib; first compound 8 µM) | relative viability (ALW-II-49-7 + Pictilisib; first compound 0.08 µM) | relative viability (ALW-II-49-7 + Pictilisib; first compound 0.253 µM) | relative viability (ALW-II-49-7 + Pictilisib; first compound 0.8 µM) | relative viability (ALW-II-49-7 + Pictilisib; first compound 2.53 µM) | relative viability (ALW-II-49-7 + Pictilisib; first compound 8 µM) | relative viability (Dasatinib + Trametinib; first compound 0.005 µM) | relative viability (Dasatinib + Trametinib; first compound 0.01581 µM) | relative viability (Dasatinib + Trametinib; first compound 0.05 µM) | relative viability (Dasatinib + Trametinib; first compound 0.1581 µM) | relative viability (Dasatinib + Trametinib; first compound 0.5 µM)
1 | 201T | 0.356 | 0.377 | 0.539 | 0.357 | 0.34 | 1.04 | 1.08 | 1.04 | 1.06 | 1.04 | 0.666 | 0.684 | 0.771 | 0.714 | 0.628 | 0.695 | 0.64 | 0.708 | 0.575 | 0.44
2 | A549 |  |  |  |  |  | 0.753 | 0.852 | 0.596 | 0.754 | 0.624 | 0.535 | 0.568 | 0.496 | 0.505 | 0.416 |  |  |  |  | 
3 | A-427 | 0.568 | 0.499 | 0.573 |  | 0.473 | 1.01 | 0.816 | 0.855 | 0.878 | 0.969 | 0.687 | 0.634 | 0.835 | 0.775 | 0.734 | 0.76 | 0.598 | 0.713 | 0.433 | 0.408
4 | ABC-1 | 0.72 | 0.606 | 0.78 |  | 0.556 | 0.978 | 0.92 | 0.838 | 1.05 | 1.03 | 0.879 | 0.761 | 0.811 | 0.79 | 0.689 |  |  |  |  | 
5 | BEN | 0.462 | 0.508 | 0.492 | 0.489 | 0.468 | 0.722 | 0.866 | 0.81 |  | 0.834 | 0.56 | 0.592 | 0.608 |  | 0.567 | 0.891 | 0.614 | 0.8 | 0.528 | 0.511
6 | CAL-12T | 0.567 | 0.418 | 0.478 | 0.504 | 0.371 | 0.537 | 0.625 | 0.686 | 0.62 | 0.385 | 0.343 |  |  | 0.715 | 0.395 | 0.331 | 0.324 | 0.343 | 0.198 | 0.138
7 | COR-L23 | 0.248 | 0.298 | 0.295 | 0.294 | 0.365 | 0.688 | 0.601 | 0.626 | 0.614 | 0.793 | 0.839 | 0.548 | 0.739 | 0.72 | 0.779 | 0.563 | 0.416 | 0.48 | 0.444 | 0.281
8 | COR-L 105 | 0.405 | 0.412 | 0.4 | 0.404 | 0.42 | 0.737 | 0.805 | 0.864 | 0.653 | 0.72 | 0.543 | 0.419 | 0.387 | 0.344 | 0.422 | 0.445 | 0.358 | 0.389 | 0.336 | 0.253
9 | Calu-6 |  |  |  |  |  | 0.736 | 0.737 | 0.718 | 0.904 | 0.554 | 1.02 | 0.99 | 0.907 | 0.735 | 0.72 |  |  |  |  | 
10 | ChaGo-K-1 | 0.923 | 0.897 | 0.958 | 0.92 | 0.795 | 1.13 | 1.12 | 1.08 | 0.972 | 1.04 | 0.661 | 1.04 | 0.818 | 1.19 | 0.442 | 0.89 | 0.855 | 0.95 | 0.777 | 0.6
11 | EBC-1 |  |  |  |  |  | 0.176 | 0.177 | 0.203 | 0.171 | 0.182 | 0.315 | 0.316 |  | 0.242 | 0.244 |  |  |  |  | 
12 | EKVX | 0.45 | 0.376 | 0.33 |  | 0.397 | 0.989 | 0.79 | 0.969 | 0.718 | 0.818 | 0.42 | 0.475 | 0.438 | 0.398 | 0.499 | 0.345 | 0.306 | 0.254 | 0.178 | 0.114
13 | EMC-BAC-2 | 0.558 | 0.519 | 0.536 | 0.497 | 0.47 | 0.677 | 0.728 | 0.737 | 0.588 | 0.509 | 0.507 | 0.59 | 0.567 | 0.556 | 0.46 | 0.965 | 0.93 | 0.923 | 0.857 | 0.716
14 | EPLC-272H | 0.314 | 0.344 | 0.329 | 0.279 | 0.317 | 0.869 | 0.754 | 0.85 | 1.15 | 1 | 0.258 | 0.359 | 0.328 | 0.37 | 0.29 | 0.312 | 0.267 | 0.307 | 0.222 | 0.141
15 | H3255 | 0.316 | 0.291 | 0.309 | 0.334 | 0.306 | 0.945 | 0.993 | 0.81 | 0.696 | 0.564 | 0.505 | 0.43 | 0.48 | 0.335 | 0.418 | 0.667 | 0.489 | 0.587 | 0.431 | 0.297
16 | HARA | 0.265 | 0.313 | 0.25 | 0.273 | 0.245 | 0.914 | 0.982 | 1.01 | 1.25 | 1.23 | 0.416 | 0.386 | 0.431 | 0.483 | 0.497 | 0.714 | 0.31 | 0.518 | 0.189 | 0.212
17 | HCC-15 | 0.798 | 0.684 | 0.803 | 0.709 | 0.594 | 0.805 | 0.86 | 0.786 | 0.831 | 0.886 | 0.849 | 0.791 | 0.705 | 0.805 | 0.741 | 0.354 | 0.336 | 0.332 | 0.253 | 0.207
18 | HCC-44 | 0.978 | 0.912 | 0.959 | 0.944 | 0.96 | 0.902 | 0.773 | 0.729 | 0.823 | 0.782 | 0.513 | 0.693 | 0.638 | 0.535 | 0.646 | 1.11 | 0.94 | 1.16 | 1.17 | 0.574
